Laboratory results as given in patent publication US9932637B2, “Genetic polymorphisms associated with cardiovascular disorders and drug response, methods of detection and uses thereof” (CELERA CORPORATION, priority 2003, dated 2018).

Tests used:
[1] = tested on: patients with prior myocardial infarction (CARE study); assay: CARE: association of SNPs with pravastatin treatment in RMI prevention (genotypic RR in placebo and statin strata; Table 10); assay type: in vivo, human
Description: In order to identify genetic markers associated with acute coronary events (e.g. MI, stroke, unstable angina, congestive heart failure, etc.) or response to statin treatment for the prevention of coronary events, samples from the Cholesterol and Recurrent Events (CARE) study (a randomized multicentral double-blinded trial on secondary prevention of acute coronary events with pravastatin) (Sacks et al., 1991, Am. J. Cardiol. 68: 1436-1446) were genotyped. A well-documented myocardial infarction (MI) was one of the enrollment criteria for entry into the CARE study. Patients were enrolled in the CARE trial from 80 participating study centers. […] Patients were randomized to receive either 40 mg of pravastatin once daily or a matching placebo. The primary endpoint of the trial was death from coronary heart disease and the median duration of follow-up was 5.0 years (range, 4.0 to 6.2 years). […] Secondary endpoints of other related cardiovascular or metabolic disease events, and changes in clinical variables were also recorded in pravastatin-treated and placebo groups. All individuals included in the study had signed a written informed consent form and the study protocol was approved by the respective Institutional Review Boards (IRBs).
For genotyping SNPs in CARE patient samples, DNA was extracted from blood samples using conventional DNA extraction methods such as the QIA-amp kit from Qiagen. Genotypes were obtained on an ABI PRISM® 7900HT Sequence Detection PCR system (Applied Biosystems, Foster City, Calif.) by kinetic allele-specific PCR, similar to the method described by Germer et al. (Germer S., Holland M. J., Higuchi R. 2000, Genome Res. 10: 258-266).
For statistical analysis of association of SNPs with pravastatin treatment in RMI prevention (Table 10), effect sizes were estimated through genotypic RR, including 95% CIs. Homogeneity of Cochran-Mantel-Haenszel odds ratios was tested across pravastatin and placebo strata using the Wald test. […] (this adjustment supports independence of the SNP association from conventional risk factors). This table also provides the frequency data for the at risk allele in the columns labeled “Case Y PRIMER ALLELE Nucleotide Frequency” and “Control Y PRIMER ALLELE Nucleotide Frequency”. Allele frequencies for the cases and controls ≤0.49 indicate that the at-risk allele is the minor allele. Allele frequencies ≥0.50 indicate that the at-risk allele is the major allele. An example of a SNP associated with increased risk for an adverse cardiovascular event in the placebo group using a dominant genotypic test is hCV25644901. […] However, this same SNP was protective in the statin treated group with a RR of 0.58. An example of a SNP associated with an adverse cardiovascular event in the placebo group using the allelic association test is hCV16044337 with a RR of 1.87 for the homozygous AA genotype. This same genotype was protective in the statin treated group with a RR of 0.56.

[2] = tested on: animal models and myocyte cultures; conditions: compared to other hydrophobic statins; cited from earlier work

SMILES: CC[C@H](C)C(=O)O[C@H]1C[C@H](O)C=C2C=C[C@H](C)[C@H](CC[C@@H](O)C[C@@H](O)CC(=O)O)[C@H]21 [pravastatin]
- RR (relative risk for RMI) ([1]; HSPG2 hCV16172339, Het(TC) stratum, Statin vs Placebo, covars none): 0.37
- RR (relative risk for RMI) ([1]; HSPG2 hCV16172339, Maj Hom (CC) stratum, Statin vs Placebo, covars none): 0.80
- RR (relative risk for RMI) ([1]; HSPG2 hCV16172339, Statin stratum, het (TC)vs. ref(CC), covars none): 0.66
- RR (relative risk for RMI) ([1]; IL4R hCV2351160, Het(GA) stratum, Statin vs Placebo, covars HX_SMOKE): 0.57
- RR (relative risk for RMI) ([1]; IL4R hCV2351160, Maj Hom(AA) stratum, Statin vs Placebo, covars HX_SMOKE): 0.85
- RR (relative risk for RMI) ([1]; IL4R hCV2351160, Min Hom(GG) stratum, Statin vs Placebo, covars HX_SMOKE): 0.36
- RR (relative risk for RMI) ([1]; IL4R hCV2351160, Statin stratum, het(GA) vs. ref(AA), covars HX_SMOKE): 0.76
- RR (relative risk for RMI) ([1]; IL4R hCV2351160, Statin stratum, hom (GG)vs. ref(AA), covars HX_SMOKE): 0.61
- RR (relative risk for RMI) ([1]; IL4R hCV2769554, Het(GA) stratum, Statin vs Placebo): 0.64
- RR (relative risk for RMI) ([1]; IL4R hCV2769554, Maj Hom(AA) stratum, Statin vs Placebo): 0.59
- RR (relative risk for RMI) ([1]; IL4R hCV2769554, Min Hom(GG) stratum, Statin vs Placebo): 1.56
- RR (relative risk for RMI) ([1]; IL4R hCV2769554, Statin stratum, het(GA) vs. ref(AA)): 1.17
- RR (relative risk for RMI) ([1]; IL4R hCV2769554, Statin stratum, hom(GG) vs. ref(AA)): 1.26
- RR (relative risk for RMI) ([1]; ITGA9 hCV3215409, Het(GA) stratum, Statin vs Placebo): 0.86
- RR (relative risk for RMI) ([1]; ITGA9 hCV3215409, Maj Hom(AA) stratum, Statin vs Placebo): 0.84
- RR (relative risk for RMI) ([1]; ITGA9 hCV3215409, Min Hom(GG) stratum, Statin vs Placebo): 0.30
- RR (relative risk for RMI) ([1]; ITGA9 hCV3215409, Statin stratum, het (GA)vs. ref(AA)): 1.22
- RR (relative risk for RMI) ([1]; ITGA9 hCV3215409, Statin stratum, hom(GG) vs. ref(AA)): 0.54
- RR (relative risk for RMI) ([1]; LAMA2 hCV16047108, Het (GA) stratum, Statin vs Placebo): 1.31
- RR (relative risk for RMI) ([1]; LAMA2 hCV16047108, Maj Hom (AA) stratum, Statin vs Placebo): 0.63
- RR (relative risk for RMI) ([1]; LAMA2 hCV16047108, Statin stratum, het(GA) vs. ref (AA)): 2.02
- RR (relative risk for RMI) ([1]; LAMA2 hCV16047108, Statin stratum, hom(GG) vs. ref (AA)): 4.97
- RR (relative risk for RMI) ([1]; LPA hCV11225994, Het(GA) stratum, Statin vs Placebo): 1.02
- RR (relative risk for RMI) ([1]; LPA hCV11225994, Maj Hom(GG) stratum, Statin vs Placebo): 0.62
- RR (relative risk for RMI) ([1]; LPA hCV11225994, Min Hom(AA) stratum, Statin vs Placebo): 1.33
- RR (relative risk for RMI) ([1]; LPA hCV11225994, Statin stratum, het(GA) vs. ref (GG)): 1.06
- RR (relative risk for RMI) ([1]; LPA hCV11225994, Statin stratum, hom (AA)vs. ref(GG)): 2.34
- RR (relative risk for RMI) ([1]; MACF1 hCV3112686, Het(GC) stratum, Statin vs Placebo, covars HX_SMOKE): 0.71
- RR (relative risk for RMI) ([1]; MACF1 hCV3112686, Maj Hom(CC) stratum, Statin vs Placebo, covars HX_SMOKE): 0.96
- RR (relative risk for RMI) ([1]; MACF1 hCV3112686, Min Hom(GG) stratum, Statin vs Placebo, covars HX_SMOKE): 0.42
- RR (relative risk for RMI) ([1]; MACF1 hCV3112686, Statin stratum, het(GC) vs. ref(CC), covars HX_SMOKE): 0.98
- RR (relative risk for RMI) ([1]; MACF1 hCV3112686, Statin stratum, hom(GG) vs. ref(CC), covars HX_SMOKE): 0.60
- RR (relative risk for RMI) ([1]; NPC1 hCV25472673, Het(TC) stratum, Statin vs Placebo, covars none): 0.61
- RR (relative risk for RMI) ([1]; NPC1 hCV25472673, Maj Hom(TT) stratum, Statin vs Placebo, covars none): 1.08
- RR (relative risk for RMI) ([1]; NPC1 hCV25472673, Statin stratum, het(TC) vs. ref(TT), covars none): 0.76
- RR (relative risk for RMI) ([1]; NPC1 hCV25472673, Statin stratum, hom(CC) vs. ref(TT), covars none): 0.87
- RR (relative risk for RMI) ([1]; PLAB hCV7494810, Het(GC) stratum, Statin vs Placebo, covars HX_SMOKE): 0.46
- RR (relative risk for RMI) ([1]; PLAB hCV7494810, Maj Hom(CC) stratum, Statin vs Placebo, covars HX_SMOKE): 0.94
- RR (relative risk for RMI) ([1]; PLAB hCV7494810, Min Hom(GG) stratum, Statin vs Placebo, covars HX_SMOKE): 0.75
- RR (relative risk for RMI) ([1]; PLAB hCV7494810, Statin stratum, het(GC) vs. ref(CC), covars HX_SMOKE): 0.67
- RR (relative risk for RMI) ([1]; PLAB hCV7494810, Statin stratum, hom(GG) vs. ref(CC), covars HX_SMOKE): 0.68
- RR (relative risk for RMI) ([1]; PPOX hCV25922816, Het(GA) stratum, Statin vs Placebo): 0.42
- RR (relative risk for RMI) ([1]; PPOX hCV25922816, Maj Hom(GG) stratum, Statin vs Placebo): 0.82
- RR (relative risk for RMI) ([1]; PPOX hCV25922816, Statin stratum, het(GA) vs. ref(GG)): 0.64
- RR (relative risk for RMI) ([1]; PTPRJ hCV8895373, Het(GA) stratum, Statin vs Placebo): 1.07
- RR (relative risk for RMI) ([1]; PTPRJ hCV8895373, Maj Hom(GG) stratum, Statin vs Placebo): 0.60
- RR (relative risk for RMI) ([1]; PTPRJ hCV8895373, Min Hom(AA) stratum, Statin vs Placebo): 1.62
- RR (relative risk for RMI) ([1]; PTPRJ hCV8895373, Statin stratum, het(GA) vs. ref (GG)): 1.43
- RR (relative risk for RMI) ([1]; PTPRJ hCV8895373, Statin stratum, hom(AA)vs. ref(GG)): 1.14
- RR of adverse cardiovascular event in the statin treated group ([1]; hCV16044337, homozygous AA genotype): 0.56
- RR of adverse cardiovascular event in the statin treated group ([1]; hCV25644901, dominant genotype (GG or GA)): 0.58
- myopathic potential [2]: low myopathic potential
